Measured values reported in patent US7312248B2, “Control of parasites in animals by the use of novel trifluoromethanesulfonanilide oxime ether derivatives” (Schering-Plough Animal Health Corporation, priority 2004, dated 2007).
Read-outs that look alike come from different tables or passages of the source.

Assays:
Type in all cases: in vivo
[1] = test system: cat flea (Ctenocephalides felis); test: whole plant or invertebrate; conditions: Ctenocephalides felis
Method in brief: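 Single-dose screen at 1.26 μg/cm^2: acetone solution dried for 24 h on a Coatasil-treated 159 mm^2 flask base, then 15 adult cat fleas aged 3-7 days per flask, four or more replicates, acetone control. Percent dead, meaning not moving or unable to right themselves, recorded after 8, 24 and/or 48 h at 25 °C and 75% RH.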

[2] = test system: cat flea (Ctenocephalides felis); test: Ctenocephalides felis adulticide assay: dose response (LC50)
From the text: c) Ctenocephalides felis Adulticide Assay: C. felis Dose Response
The purpose of this example was to determine the LC50 when cat fleas were contacted with a glass surface treated with sample compounds or formulations prepared as described above. Mortality of fleas was defined as follows: fleas were considered dead if they didn't move or were on their sides and unable to walk or right themselves. LC50: Lethal Concentration 50—concentration of glass surface treatment at which 50% of the cat fleas were killed. The test species was the cat flea (Ctenocephalides felis). The strain used was obtained from external suppliers as pupae and held in the laboratory under testing conditions until the adults had emerged. Fifteen (15) fleas were used in a minimum of four replicates for each dose level (total of 60 fleas per dose level). The insects were selected to be in the adult life stage, aged between 3 and 7 days post emergence.
The compounds to be tested were dissolved in acetone just prior to testing. Samples of compounds were stored in a refrigerator (5±1° C.) unless otherwise specified. During the mortality testing, the temperature was maintained at 25+1° C. Humidity was maintained at 75±5%. The base (area=159 mm^2) of a 100 mL glass Erlenmeyer (conical) flask provided the treatment surface. Flasks were pretreated with Coatasil™ glass treatment to maximise bio-availability of test compounds by preventing them from binding to the glass surface.
Six dose levels (concentrations) of test sample, in the form of a serial dilution, were derived from a pilot study and covered a range that produced very low to very high mortality. The base of the 100 mL Erlenmeyer flask was treated with 0.5 mL of test sample in acetone and gently swirled. This volume was sufficient to cover the base of the flask. Flasks were left to dry for 24 hours before flea exposure. Adult cat fleas were lightly anaesthetised by cooling and then placed into a sorting chamber, which allowed fleas to revive and jump into the Erlenmeyer flasks. Fifteen (15)adult cat fleas were collected in each flask. The top of the flasks were then covered in Parafilm™ and small holes made to allow gas exchange. A 0.5 mL volume of acetone was applied to the base of an Erlenmeyer flask and the testing proceeded in the same manner described above. Cat fleas in the treatment containers were held under testing conditions for 24 hours. Mortality resulting from the treatments was recorded at 8 and 24 hours.

[3] = test system: Brown Dog Tick (Rhipicephalus sanguineus); test: Rapid screening protocol for topical application on brown dog ticks; conditions: for R. sanguineus Mortality (%) 48 h: Laboratory 2 F data; for Rhipicephalus sanguineus Mortality (%) 24 h: topical, 10 μg of active per tick in 1 μL acetone, adult ticks, Laboratory 1 E data
Experimental: d) Rapid Screening Protocol for Topical Application on Brown Dog Ticks (Rhipicephalus sanguineus)
The aim of the test was to determine the presence of significant acaricidal activity in sample compounds or formulations when applied topically on brown dog ticks. A tick was defined as dead if it gave no apparent response when touched lightly and observed for 1 minute. […] Both permethrin and fipronil were employed as reference compounds. The insect species tested was the Brown Dog Tick (Rhipicephalus sanguineus). Mixed sex adult ticks were used for tests. The strain used was cultured by von Berky Veterinary Services, Woody Point, QLD, AU and supplied as unfed adult ticks (mixed sex). Ticks were maintained in controlled conditions (temp. 18°+2° C., humidity 75±5% RH).
Temperature was maintained at 25±1° C. and the humidity was ambient. […] Ticks were each treated on the abdomen with 1 μL of a single dose level of test sample in acetone; ten ticks were treated with solvent only (acetone) in each test. Tests were replicated 4 times (total of 40 ticks treated). […]

Haemonchus contortus = Haemonchus contortus larvacidal (larval development) assay; conditions: 144 h, read-out: Haemonchus contortus LD99
Method in brief: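 Nematode eggs placed on agar containing compound (12 two-fold dilutions, final 0.024–50 μg/ml) and left 6 days to develop to L3. LD99 is the lowest concentration inhibiting development of 99% of larvae, derived from well titre (2^n−1) and top concentration.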

[4] = 24 h, read-out: C. felis Mortality (%) 24 h, 24 h, Laboratory 1 A data
[5] = 8 h, read-out: C. felis Mortality (%) 8 h, 8 h, Laboratory 2 B data
[6] = 24 h, read-out: C. felis Mortality (%) 24 h, 24 h, Laboratory 2 B data
[7] = 24 h, read-out: Ctenocephalides felis Mortality (%) 24 h
[8] = 48 h, read-out: Ctenocephalides felis Mortality (%) 48 h
[9] = 8 h, read-out: C. felis Mortality (%) 8 h, 8 h, Laboratory 1 A data
[10] = 8 h, read-out: Ctenocephalides felis Mortality (%) 8 h

SMILES	C. felis LC50 ([2]; Laboratory 1 C data) [μg/cm^2]	R. sanguineus Mortality (%) 48 h [3] [%]	mortality at 1.26 µg/cm2, 1.26 µg/cm2 [1, 5] [%]	mortality at 1.26 µg/cm2, 1.26 µg/cm2 [1, 6] [%]	also measured
CC/C(=N\OCC1CCCCC1)c1cc(Cl)ccc1NS(=O)(=O)C(F)(F)F [Compound 104, N-[4-chloro-2-(1-cyclohexylmethoxyiminopropyl)phenyl]trifluoromethanesulfonamide]	0.3	100	–	–	mortality at 1.26 µg/cm2, 1.26 µg/cm2 [1, 4]: 100%; C. felis LC50 ([2]; Laboratory 2 D data): 1.6 μg/cm^2; IC99 (Haemonchus contortus): 10 µg/mL
CCO/N=C(\c1ccccc1)c1cc(Cl)ccc1NS(=O)(=O)C(F)(F)F [Compound 178, N-[4-chloro-2-(ethoxyiminophenylmethyl)phenyl]trifluoromethanesulfonamide]	0.3	85	–	–	mortality at 1.26 µg/cm2, 1.26 µg/cm2 [1, 4]: 96%
CC/C(=N\Oc1ccc(Cl)cc1)c1cc(Cl)ccc1NS(=O)(=O)C(F)(F)F [Compound 128, N-{4-chloro-2-[1-(4-chlorophenoxyimino)propyl]phenyl}trifluoromethanesulfonamide]	0.08	85	–	–	mortality at 1.26 µg/cm2, 1.26 µg/cm2 [1, 4]: 100%; C. felis LC50 ([2]; Laboratory 2 D data): 0.05 μg/cm^2; IC99 (Haemonchus contortus): 0.4 µg/mL
CC/C(=N\OCCOC)c1cc(Cl)ccc1NS(=O)(=O)C(F)(F)F [Compound 183]	–	100	100	100	–
O=S(=O)(Nc1ccc(Cl)cc1/C(=N/OC1CCCCC1)C1CCCCC1)C(F)(F)F [Compound 212]	–	57	24	100	–
CCOC(=O)N(c1ccc(Cl)cc1/C(C)=N/Oc1ccc(F)cc1)S(=O)(=O)C(F)(F)F [Compound 310, N-carbonylethoxy-N-{4-chloro-2-[1-(4-fluorophenoxyimino)ethyl]phenyl}trifluoromethanesulfonamide]	–	–	–	–	mortality at 1.26 µg/cm2 ([1]; 8 h, single concentration 1.26 μg/cm^2 on treated glass, adult fleas, Laboratory 2 B data, read-out: Ctenocephalides felis Mortality (%) 8 h): 56%; mortality at 1.26 µg/cm2 ([1]; 24 h, single concentration 1.26 μg/cm^2 on treated glass, adult fleas, Laboratory 2 B data, read-out: Ctenocephalides felis Mortality (%) 24 h): 100%; Rhipicephalus sanguineus Mortality (%) 24 h [3]: 52%
C/C(=N\OCc1cccnc1)c1cc(Cl)ccc1NS(=O)(=O)C(F)(F)F [Compound 188]	–	40	98	98	–
CC/C(=N\OCc1ccc(Cl)cc1)c1cc(Cl)ccc1N(C(C)=O)S(=O)(=O)C(F)(F)F [Compound 307, N-acetyl-N-{4-chloro-2-[1-(4-chlorobenzyloxyimino)propyl]phenyl}trifluoromethanesulfonamide]	–	–	–	–	mortality at 1.26 µg/cm2 [1, 7]: 10%; mortality at 1.26 µg/cm2 [1, 8]: 98%; Rhipicephalus sanguineus Mortality (%) 24 h [3]: 5%
CCC/C(=N\OC1CCCC1)c1cc(Cl)ccc1NS(=O)(=O)C(F)(F)F [Compound 195]	–	97	33	100	–
CC/C(=N\OCc1ccc(Br)cc1)c1cc(Cl)ccc1NS(=O)(=O)C(F)(F)F [Compound 75]	0.3	77	–	–	mortality at 1.26 µg/cm2, 1.26 µg/cm2 [1, 9]: 37%; mortality at 1.26 µg/cm2, 1.26 µg/cm2 [1, 4]: 78%; IC99 (Haemonchus contortus): 0.9 µg/mL
CCC/C(=N\OC(C)C)c1cc(Cl)ccc1NS(=O)(=O)C(F)(F)F [Compound 191]	–	92	52	100	–
CCOCN(c1ccc(Cl)cc1/C(CC)=N/OCc1ccc(Cl)cc1)S(=O)(=O)C(F)(F)F [Compound 302]	–	–	–	–	mortality at 1.26 µg/cm2 [1, 7]: 3%; mortality at 1.26 µg/cm2 [1, 8]: 82%; Rhipicephalus sanguineus Mortality (%) 24 h [3]: 5%
C/C(=N\Oc1cccc(Cl)c1)c1cc(Cl)ccc1NS(=O)(=O)C(F)(F)F [Compound 132]	0.2	80	–	–	mortality at 1.26 µg/cm2, 1.26 µg/cm2 [1, 4]: 100%; IC99 (Haemonchus contortus): 1.6 µg/mL
CC/C(=N\Oc1ccc(Cl)cc1)c1ccc(C(F)(F)F)cc1NS(=O)(=O)C(F)(F)F [Compound 201]	–	22	85	100	–
CC(C)(C)/C(=N\Oc1ccc(F)cc1)c1cc(Cl)ccc1NS(=O)(=O)C(F)(F)F [Compound 198, N-{4-chloro-2-[1-(4-fluorophenoxyimino)2,2-dimethylpropyl]phenyl}trifluoromethanesulfonamide]	–	35	16	92	–
CC/C(=N\OCc1ccccc1C(F)(F)F)c1cc(Cl)ccc1NS(=O)(=O)C(F)(F)F [Compound 6]	0.1	82	–	–	mortality at 1.26 µg/cm2, 1.26 µg/cm2 [1, 9]: 69%; mortality at 1.26 µg/cm2, 1.26 µg/cm2 [1, 4]: 96%; C. felis LC50 ([2]; Laboratory 2 D data): 0.03 μg/cm^2; IC99 (Haemonchus contortus): 1.3 µg/mL
CC/C(=N\OCC(F)(F)F)c1cc(Cl)ccc1NS(=O)(=O)C(F)(F)F [Compound 184]	–	92	100	100	–
CCCCc1cc(-c2cc(Cl)ccc2NS(=O)(=O)C(F)(F)F)no1 [Compound 291]	–	–	–	–	mortality at 1.26 µg/cm2 [1, 10]: 91%; mortality at 1.26 µg/cm2 [1, 7]: 100%; Rhipicephalus sanguineus Mortality (%) 24 h [3]: 67%
CC/C(=N\Oc1ccc(F)cc1)c1ccc(C(F)(F)F)cc1NS(=O)(=O)C(F)(F)F [Compound 214]	–	20	98	100	–
CC(=O)N(c1ccc(Cl)cc1/C(C)=N/Oc1ccc(F)cc1)S(=O)(=O)C(F)(F)F [Compound 308]	–	–	–	–	mortality at 1.26 µg/cm2 [1, 10]: 29%; mortality at 1.26 µg/cm2 [1, 7]: 100%; Rhipicephalus sanguineus Mortality (%) 24 h [3]: 7%
CC/C(=N\OCc1ccc(C(F)(F)F)cc1C(F)(F)F)c1cc(Cl)ccc1NS(=O)(=O)C(F)(F)F [Compound 76, N-{2-[1-(2,4-bistrifluoromethylbenzyloxyimino)propyl]-4-chlorophenyl}trifluoromethanesulfonamide]	0.2	80	–	–	mortality at 1.26 µg/cm2, 1.26 µg/cm2 [1, 9]: 100%; C. felis LC50 ([2]; Laboratory 2 D data): 0.05 μg/cm^2; IC99 (Haemonchus contortus): 0.3 µg/mL
